Consider three compounds from patent US20080187492A1, “Drosophila Models For Diseases Affecting Learning and Memory” (priority 2004, published 2008).

Assay [1] deals with FS (dFMR1-3+frame shifted rescue fragment) flies. Kind of assay: Conditioned courtship: short-term memory at 60 minutes, virgin female target, FS flies. As to conditions: for short-term memory: concentration not given; for short term memory: LY341495 (400 nM), MPEP (20 μg/ml); for short-term memory at 60 minutes after training: adulthood alone or both. The class given is in vivo, Drosophila melanogaster. Here is the method:
(§1) Short-term memory. The model was further extended to encompass short-term memory at 60 minutes after training. After the one hour training session with a previously mated female, the female is removed and the male is placed in a holding chamber for 60 minutes, then subsequently placed in a testing chamber with a virgin female target to assess short-term memory (FIG. 4C). […] CT-CT FS flies court just as vigorously at 60 minutes after training as naive CT-CT FS flies. […] The FS groups that were treated with MPEP in development alone, adulthood alone or in both development and adulthood display experience dependent reduction of courtship activity at 60 minutes after training when compared to group matched naives M-M FS, p<0.0001, CT-M FS, p<0.0001 and M-CT FS, p<0.0001. […] Additionally, flies were tested for ability to discriminate between virgin and previously mated females (FIG. 4D).
(§2) In order to examine short-term memory at 60 minutes after training, after the one hour training session with a previously mated female, the female is removed and the male is placed in a holding chamber for 60 minutes, then subsequently placed in a testing chamber with a virgin female (FIG. 9B). […] CT-CT FS flies court just as vigorously at 60 minutes after training as naive CT-CT FS flies. […] The FS groups that were treated with MPEP in development alone, adulthood alone or in both development and adulthood display experience dependent reduction of courtship activity at 60 minutes after training when compared to group matched naives M-M FS.

The subject of assay [2] is wild type human and Drosophila tau expressing flies. The experiment in a line: Short term memory in tau over expressing Drosophila Alzheimer's model. The class given is in vivo. The settings on record: for age dependent short term memory deficit: at 30 and 40 days. The text has this:
Two Drosophila Alzheimer's models are particularly useful. One uses over expression of tau (either human wild type or Drosophila wild type with a myc tag) driven in the mushroom bodies. Flies overexpressing tau have normal memory at 5 days of age (young adults) but an age dependent impairment of short-term and long term memory by 26 days of age.

For assay [3], the system named is Rescue (dFMR1-3+wild type rescue fragment) flies. Kind of assay: Conditioned courtship: short-term memory at 60 minutes, virgin female target, Rescue flies. As to conditions: for short term memory: MPEP (20 μg/ml), NaCl (5 and 50 mM), LY341495 (400 nM); for short-term memory at 60 minutes after training: adulthood or both. The class given is in vivo, Drosophila melanogaster. Here is the method: as §1, §2

Assay [4] concerns FS (dFMR1-3+frame shifted rescue fragment) flies. Kind of assay: Quality of naive courtship (progress to later courtship steps), FS flies. The class given is in vivo, Drosophila melanogaster. Here is the method: In order to determine if MPEP can get into the Drosophila central nervous system (CNS) through feeding behavior, we mixed MPEP into the food at a concentration of 1,000 μg/ml (433.0 μM). Males were raised on CT food and then placed on either CT or M food. Naive males were placed in the training chamber for one hour with no female, and then placed with a virgin target female for a ten-minute interval. The naive courtship behavior was reduced by high MPEP concentration in Rescue (p<0.0001) and FS (p<0.0005) lines, and it was depressed to similar levels by high MPEP treatment in the Rescue and FS groups (FIG. 2A). […] FIG. 2B dissects the steps involved in naive courtship behavior. […] Lowering the dose of MPEP and examining naive courtship. We next decided to try a lower dose of MPEP to 200 μg/ml (86.6 μM) mixed into the food of the Drosophila. In these experiments flies were placed on either CT or M food in the larval stage and then placed on either CT of M food within four hours of eclosion. […] Therefore giving this drug in adulthood only is effective in enhancing naive courtship behavior. […] The MPEP in development can rescue the naive courtship phenotype regardless of whether or not the flies receive it as adults. Further analysis of the quality of courtship that was performed by naive males was assessed by binning the number of males to advance to a particular phase of courtship for each genotype and pharmacologic treatment (FIG. 3B).

Assay [5] deals with Rescue (dFMR1-3+wild type rescue fragment) flies. Kind of assay: Quality of naive courtship (progress to later courtship steps), Rescue flies. The class given is in vivo, Drosophila melanogaster. As to conditions: 5 day old. Here is the method:
In order to determine if MPEP can get into the Drosophila central nervous system (CNS) through feeding behavior, we mixed MPEP into the food at a concentration of 1,000 μg/ml (433.0 μM). Males were raised on CT food and then placed on either CT or M food. Naive males were placed in the training chamber for one hour with no female, and then placed with a virgin target female for a ten-minute interval. The naive courtship behavior was reduced by high MPEP concentration in Rescue (p<0.0001) and FS (p<0.0005) lines, and it was depressed to similar levels by high MPEP treatment in the Rescue and FS groups (FIG. 2A). […] FIG. 2B dissects the steps involved in naive courtship behavior. […] Lowering the dose of MPEP and examining naive courtship. We next decided to try a lower dose of MPEP to 200 μg/ml (86.6 μM) mixed into the food of the Drosophila. In these experiments flies were placed on either CT or M food in the larval stage and then placed on either CT of M food within four hours of eclosion. […] Therefore giving this drug in adulthood only is effective in enhancing naive courtship behavior. […] Further analysis of the quality of courtship that was performed by naive males was assessed by binning the number of males to advance to a particular phase of courtship for each genotype and pharmacologic treatment (FIG. 3B).

Assay [6] relates to FS (dFMR1-3+frame shifted rescue fragment) flies. Kind of assay: Discrimination between virgin and previously mated females, FS flies. The class given is in vivo, Drosophila melanogaster. The settings on record: 20-day-old; MPEP 200 μg/ml in development and adulthood (M-M). Here is the method:
as §1
Flies were also tested for ability to discriminate between virgin and previously mated females in FIG. 9C.

The test system is the same in assay [7]. Kind of assay: Conditioned courtship: immediate recall (0 minute memory), FS flies. The class given is in vivo, Drosophila melanogaster. As to conditions: adulthood alone or both. Here is the method:
To assess immediate recall (0 minute memory), after the one hour training session with a previously mated female, the male was placed with a virgin target female for a ten-minute interval. This CI was then compared to the courtship level of naive males that had been placed in the training chamber for one hour with no female, before introducing them to a virgin target female for a ten-minute interval. In FIG. 1B the w1118 and Rescue lines show depression of courtship activity after training compared to naive trained males (p<0.005). However, dFMR1-3 and FS mutant lines court just as vigorously after training with a previously mated female as naive trained males, therefore these flies display no experience dependent behavioral plasticity at the time point of immediate recall. This is in spite of the fact that they court to similar levels as w1118 and Rescue lines during the training period. This implicates a deficit in synaptic plasticity for the two mutant lines at immediate recall (0 minute memory). This robust deficit in behavioral plasticity is a critical extension of the previous models of Fragile X syndrome in model organisms, since this has been completely missing in Drosophila models and is subtle in murine models, and particularly since this may be one of the most devastating aspects of the human disease.
Immediate recall. […]

[8] abbreviates: 20-day-old, MPEP in development alone.
Where [9] appears, read: 5 day old, MPEP 200 μg/ml in development alone, p<0.0001.

Regarding `CC(N)(C(=O)O)c1ccc(-c2nnn[nH]2)cc1` (racemic) [MTPG, (RS)-α-methyl-4-tetrazolylphenylglycine], in assay [1] (20-day-old), the short-term memory result was “rescue short-term memory”.
With `N[C@](CC1c2ccccc2Oc2ccccc21)(C(=O)O)[C@H]1C[C@@H]1C(=O)O` [LY341495, (2S)-2-amino-2-[(1S,2S)-2-carboxycycloprop-1-yl]-3-(xanth-9-yl) propionic acid], the “age dependent short term memory deficit” value in assay [2] was “can rescue the age dependent short term memory deficit”. Also, the short term memory entry in assay [2] (treatment from day 30 to day 39, at 40 days of age) is recorded as “can restore short term memory”; in assay [3] (5 day old), “did not affect short term memory”; in assay [1] (5 day old), “restored short-term memory”. In addition, in assay [1] (20-day-old), the short-term memory entry is listed as “rescue short-term memory”.
Take `Cc1cccc(C#Cc2ccccc2)n1` [MPEP, 2-methyl-6-(phenylethynyl)pyridine]: the “age dependent short term memory deficit” value in assay [2] is “can rescue the age dependent short term memory deficit”. The “quality of naive courtship” value in assay [4] (20-day-old, MPEP (86.6 μM)) is “in adulthood, but not in development alone, MPEP treatment can affect the quality of naive courtship behavior”; in assay [4] (5 day old, MPEP 200 μg/ml in development or adulthood) it was “can affect the quality of naive courtship behavior”; in assay [5] (MPEP 200 μg/ml in adulthood only (CT-M)) it was “progressed to later phases of courtship to similar levels as all other groups”. The “steps involved in naive courtship behavior” value in assay [4] (5 day old, MPEP 1,000 μg/ml in adulthood, relative to CT-CT Rescue) is “failed to progress to later steps in courtship behavior”; in assay [5] (MPEP 1,000 μg/ml in adulthood, relative to CT-CT Rescue), “failed to progress to later steps in courtship behavior”. Moreover, the “short-term memory at 60 minutes after training” value is “does not adversely affect short-term memory” in assay [3] (20-day-old, MPEP in development); “does not adversely affect short-term memory” in assay [3] (5 day old, MPEP 200 μg/ml in development); “short-term memory is also rescued” in assay [1] (setting [8]); “short-term memory is also rescued” in assay [1] (setting [9]). Moreover, the values for the short term memory result in assay [3] (5 day old) and in assay [1] (5 day old) were “did not affect short term memory” and “restored short-term memory”, respectively. Moreover, the “time courting virgin female compared to previously mated female (discrimination)” value in assay [6] was “spent significantly more time courting virgin female targets”. For the same compound, the immediate recall in assay [7] (setting [8]) is reported as “sufficient to restore synaptic plasticity in FS flies”. Moreover, the “immediate recall (courtship immediately after training vs naive)” value in assay [7] (setting [9]) was “sufficient to rescue synaptic plasticity in FS flies”.
